Test results reported in US20080200412A1, “Astrocyte Elevated Gene-1 And Its Promoter In Treatments For Neurotoxicity And Malignancy” (priority 2005, published 2008).

Columns and labels:
AEG-1 promoter [1] = test: AEG-1 promoter luciferase reporter in primary human fetal astrocytes; format: cell-based; settings: PHFA, 0.1 to 100 μM
From the text: (§1) Construction of plasmids: The full-length AEG-1 promoter DNA used in this analysis has a 3′ boundary 1 base-pair 5′ to the translation initiation site (ATG codon) of the AEG-1 gene (designated as nucleotide 1 in FIG. 7; SEQ ID NO:2) and extends 2759 bp upstream. The genomic DNA region corresponding to the AEG-1 promoter was isolated by PCR using the PCRx Enhancer System (Invitrogen, Carlsbad, Calif.) with forward primer: 5′-[…] -3′ (KpnI site underlined) (SEQ ID NO:4) and reverse primer: 5′-[…]-3′ (XhoI site underlined) 9SEQ ID NO:5). PCR conditions were as follows: Denaturation 95° C., 30 sec; annealing 55° C., 30 sec and extension 68° C., 3 min, repeated for 30 cycles. This region of genomic DNA was cloned into the luciferase reporter pGL-3 basic (Promega, Madison, Wis.) using restriction sites in KpnI and XhoI in the plasmid polylinker.
(§2) Other mediators of AEG-1 promoter activity. The HIV-Tat (Simm et al Virology 2002;294(1);1-12) and Nef (Lathi et al., Virology. 2003; 310(1):190-196) gene products were tested on the full length AEG-1 promoter at a plasmid expression vector concentration range of 50 to 800 ng/transfection point (FIG. 16). […] Thus, the AEG-1 promoter appears to be responsive to protein products produced by HIV infection of cells.

AEG-1 promoter [2] = test: AEG-1 promoter luciferase reporter in CREF and CREF-ras fibroblasts; format: cell-based, rat
From the text: as §1
(§3) Transient transfection and luciferase assay. CREF, CREF-ras, FM516, FM516-ras, THV and THR cells were plated on 24-well plates one day prior to transfection. […] Luciferase activity was measured and normalized against β-galactosidase activity produced by a co-transfected vector as described (17). […]
(§4) Effect of inhibition of PI3 Kinase, MEK kinase and p38 MAP kinase on AEG-1 promoter activity. Signal transduction pathways impinging on or directly downstream of the RAS pathway were analyzed to determine their effect on AEG-1 promoter activity (FIGS. 13 A-E). […]

AEG-1 promoter [3] = test: AEG-1 promoter luciferase reporter in THV/THR astrocytes; format: cell-based, human
From the text: as §1, §3, §4

EAAT2 promoter = settings: PHFA; cited from earlier work
AEG-1 [4] = settings: PHFA, by 7-days; cited from earlier work
AEG-1 promoter [5] = test: AEG-1 promoter luciferase reporter co-transfected with HIV Tat or Nef expression constructs; format: cell-based, human; settings: plasmid expression vector 50 to 800 ng/transfection point
From the text: as §1, §2

U87-MG cells [6] = test: Matrigel invasion assay (Transwell); format: cell-based, human; settings: 72 h, vs control scrambled siRNA
Procedure: (§5) Matrigel invasion assay. Cell were cultured, transfected and harvested essentially as described above for soft-agar colony formation assays. Cells were mixed with Matrigel and plated on […] pore-size tissue culture inserts. After 72 h or a pre-optimized time depending on the cell line, Matrigel was removed and the inserts were stained with Geimsa stain to enumerate the number of cells that had passed through the tissue culture insert membrane.
(§6) Effect of inhibition of AEG-1 on invasiveness of malignant glioma cells. U87-MG and U251-MG cells were transiently transfected with siRNA for AEG-1 and with control scrambled siRNA using Lipofectamine. 24 hours after transfection cells were seeded in the upper compartment of a Transwell™ unit (Becton Dickinson) and then incubated for 72 h at 37° C. The lower compartment contained 0.5 ml of DMEM and 5% FBS. At the end of the invasion assay, the filters were removed, fixed, and stained.

U251-MG cells [7] = test: Matrigel invasion assay (Transwell); format: cell-based, human; settings: 72 h, vs control scrambled siRNA
Procedure: as §5, §6

U87-MG cells [8] = test: Soft agar cloning efficiency; format: cell-based, human; settings: transient transfection vs control scrambled siRNA
Procedure: (§7) Soft agar colony formation and Matrigel invasion assay. FM-516SV cells (2×10^5 cells/6-cm plate) plated the previous day were transfected with either pcDNA3.1, pcDNA3.1 AEG-1, T24 Ha-ras (20 μg each), or AEG-1/T24 Ha-ras (10+10 μg). Two days later, transfected cells were harvested by trypsinization and re-plated in soft agar (0.4%) overlaying 0.8% base agar. Two weeks later, colonies over ˜50 cells in soft agar were identified microscopically and counted. Soft agar colony formation assay was also performed with FM-516SV AEG-1 stable transfectants established by transfection of pcDNA3.1 AEG-1 and T24 Ha-ras and G418 selection.
(§8) Effect of inhibition of AEG-1 on anchorage independent growth of malignant glioma cells. U87-MG and U251-MG cells were transiently transfected with siRNA for the AEG-1 gene and control scrambled siRNA using Lipofectamine. 24 hours after transfection 1×10^5 cells from the transfection mixture were replated to determine agar cloning efficiency. In parallel, cell extracts were prepared for western blot analysis.

U251-MG cells [9] = test: Soft agar cloning efficiency; format: cell-based, human; settings: transient transfection vs control scrambled siRNA
Procedure: as §7, §8

AEG-1 [10] = test: Western blot of AEG-1 protein after siRNA transfection; format: cell-based, human; settings: U87-MG and U251-MG cells transiently transfected, 24 hours
Procedure: Western blotting and immunofluorescence microscopy. Whole cell lysates were prepared and Western blotting was performed as described (17). Antibodies used in specific experiments are described in the text or in corresponding figure legends. For immunofluorescence microscopy, IM-PHFA, grown on chamber slides, were probed with anti-AEG-1 and anti-calreticulin primary antibodies and FITC-conjugated anti-chicken and rhodamine-conjugated anti-rabbit secondary antibodies, respectively. Alternatively, IM-PHFA were loaded with Mito-Tracker (Molecular probes) and then immunocytochemistry was performed using anti-AEG-1 antibody and rhodamine-conjugated anti-chicken secondary antibody. Cells were visualized using a Zeiss confocal laser scanning microscope (LSM510) and a 100× objective.
Construction of AEG-1 siRNA. The sequence (5′ AGCAGCCACCAGAGATTGA 3′) (SEQ ID NO:3) used for AEG-1 silencing corresponds to the 449-467 nucleotides of the AEG-1 ORF. The siRNA was constructed with Silencer™ siRNA kit according to manufacturer's protocol. A control scrambled siRNA was used to determine specificity of the inhibition and the sequence 5′ GGGTCGTCTA TAGGGATCGAT 3′(SEQ ID NO:10)
Effect of inhibition of AEG-1 on anchorage independent growth of malignant glioma cells. U87-MG and U251-MG cells were transiently transfected with siRNA for the AEG-1 gene and control scrambled siRNA using Lipofectamine. […]

[11] = system: glutamate transporter (EAAT2); settings: astrocytes; cited from earlier work
AEG-1 promoter [12] = test: AEG-1 promoter luciferase reporter in C2 and C10 cell lines; format: cell-based, human
From the text: as §1
Cell treatment with inhibitors. The PI3 kinase inhibitor LY294002, MEK inhibitor PD 98059 and p38 MAP Kinase inhibitor SB 203580 were used to treat cells at the indicated concentration and to determine the effect of inhibition of the respective pathway on AEG-1 promoter activity using the AEG-1 luciferase reporter.
The colorectal cancer cell line HCT116 which is mutated in the k-RAS gene was also tested for AEG-1 promoter activity in addition to two related cell lines. […]

For `Nc1ncnc2c1nc(Br)n2[C@@H]1O[C@@H]2COP(=O)(O)O[C@H]2[C@H]1O` [Bromo-cyclicAMP], the “AEG-1 promoter activity (luciferase)” value (AEG-1 promoter [1]) was “dose responsive stimulation”.
For `C[S+]([O-])c1ccc(-c2nc(-c3ccncc3)c(-c3ccc(F)cc3)[nH]2)cc1` (centres unmarked) [SB 203580], the “AEG-1 promoter activity (luciferase)” value (AEG-1 promoter [2]; 5 μM) was “inhibition of promoter activity was observed” and the “AEG-1 promoter activity (luciferase)” value (AEG-1 promoter [3]; 5 μM) was “inhibition of promoter activity was observed”.
For TNFα, the “decrease of EAAT2 promoter activity” value (EAAT2 promoter) is listed as about 2.5 fold and the “AEG-1 expression over control” value (AEG-1 [4]) is listed as 3 fold.
With “Tat gene product: HIV-Tat gene product expressed from a co-transfected plasmid expression vector” the “stimulation of AEG-1 promoter activity” value (AEG-1 promoter [5]) was 1.5 fold.
For “siRNA for AEG-1: siRNA with sequence 5′ AGCAGCCACCAGAGATTGA 3′ (SEQ ID NO:3), corresponds to nucleotides 449-467 of the AEG-1 ORF (listed as DNA, chemistry not given here)”, the Matrigel invasion (U87-MG cells [6]) was “significantly inhibited”, the Matrigel invasion (U251-MG cells [7]) was “significantly inhibited” and the agar cloning efficiency (U87-MG cells [8]) was “significantly inhibited”. The agar cloning efficiency (U251-MG cells [9]) was “significantly inhibited” and the “AEG-1 protein knock down (Western blot)” value (AEG-1 [10]) was “efficient protein knock down”.
For “gp120: HIV-1 gp120 envelope protein used to treat astrocytes”, the “decrease of EAAT2 promoter activity” value (EAAT2 promoter) is listed as about 2.5 fold, the “AEG-1 expression over control” value (AEG-1 [4]) is listed as 3 fold and the “reduction in glutamate uptake” value [11] is listed as about 60%.
In the case of `COc1cccc(-c2cc(=O)c3ccccc3o2)c1N` [PD 98059], the “AEG-1 promoter activity, responsiveness to inhibitor” value (AEG-1 promoter [12]) is reported as “not responsive”, the “AEG-1 promoter activity (luciferase)” value (AEG-1 promoter [2]; 20 and 50 μM) is reported as “dose dependent inhibition” and the “AEG-1 promoter activity (luciferase)” value (AEG-1 promoter [3]; 20 and 50 μM) is reported as “dose dependent inhibition”.
